The structures appear in SMILES notation. Where “and” joins values, the source holds several entries; their conditions need not be identical. Equal entries are not always repeated. Inconclusive results and toxic doses are left out.

Here are results for 22 molecules from PubChem BioAssay AID328 (DTP/NCI, 2004).

For the assay, the system named is BDF1 mice, P388 leukemia ip, median survival T/C. The experiment in a line: NCI In Vivo Anticancer Drug Screen. Data for tumor model P388 Leukemia (intraperitoneal) in B6D2F1 (BDF1) mice. Conditions: endpoint: median survival time, higher = longer survival. The gist of the method:
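Each value expresses how treatment altered survival: treated-mouse outcome over vehicle-mouse outcome, both groups bearing the transplanted tumour.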

[1] abbreviates: dose: 100.0 mg/kg/injection, schedule: Q01DX009 (ip), vehicle: saline with Tween-80.
Where [2] appears, read: dose: 100.0 mg/kg/injection, schedule: Q04DX003 (ip), vehicle: saline with Tween-80.
The mark [3] stands for this setting: dose: 200.0 mg/kg/injection, schedule: Q04DX003 (ip), vehicle: saline with Tween-80.
The mark [4] stands for this setting: dose: 400.0 mg/kg/injection, schedule: Q04DX003 (ip), vehicle: saline with Tween-80.
Setting [5] is: dose: 50.0 mg/kg/injection, schedule: Q01DX009 (ip), vehicle: saline with Tween-80.
[6] abbreviates: dose: 200.0 mg/kg/injection, schedule: Q01DX009 (ip), vehicle: saline with Tween-80.
The mark [7] stands for this setting: dose: 25.0 mg/kg/injection, schedule: Q01DX009 (ip), vehicle: saline with Tween-80.
[8] abbreviates: dose: 50.0 mg/kg/injection, schedule: Q04DX003 (ip), vehicle: saline.
[9] abbreviates: dose: 100.0 mg/kg/injection, schedule: Q04DX003 (ip), vehicle: saline.
Setting [10] is: dose: 200.0 mg/kg/injection, schedule: Q04DX003 (ip), vehicle: saline.
[11] abbreviates: dose: 100.0 mg/kg/injection, schedule: Q01DX009 (ip), vehicle: saline.
Setting [12] is: dose: 200.0 mg/kg/injection, schedule: Q01DX009 (ip), vehicle: saline.
The mark [13] stands for this setting: dose: 100.0 mg/kg/injection, schedule: Q04DX003 (ip), vehicle: Klucel (hydroxypropylcellulose) (HPC).

In the case of `COc1ccc(C(=O)CC(=O)CC(=O)c2ccccc2)cc1`, the T/C is 86 % of control (dose: 200.0 mg/kg/injection, schedule: Q01DX009 (ip), vehicle: Klucel (hydroxypropylcellulose) (HPC)) and 90 % of control (dose: 400.0 mg/kg/injection, schedule: Q01DX009 (ip), vehicle: Klucel (hydroxypropylcellulose) (HPC)).

Regarding `CC(C)NCC(=O)c1ccc(O)c(O)c1`, the T/C under setting [1] was 109 % of control, the T/C under setting [2] is 100 % of control, the T/C under setting [3] was 100 % of control and the T/C under setting [4] was 100 % of control.

As to `CS(=O)(=O)CC(O)(c1ccccc1)c1ccccn1` (centres undefined), the T/C is 90 % of control under setting [5], 89 % of control under setting [1] and 89 % of control under setting [6].

Consider `COC(=O)c1cc(=O)nc(N/N=C/c2ccc(OC)cc2)s1`, for which the T/C (dose: 50.0 mg/kg/injection, schedule: Q01DX005 (ip), vehicle: saline with Tween-80) is 102 % of control; the T/C (dose: 100.0 mg/kg/injection, schedule: Q01DX005 (ip), vehicle: saline with Tween-80) is 102 % of control; the T/C (dose: 200.0 mg/kg/injection, schedule: Q01DX005 (ip), vehicle: saline with Tween-80) is 102 % of control.

Turning to `Cn1c(=O)c2c(ncn2C)n(C)c1=O`, the T/C reads like this: (dose: 50.0 mg/kg/injection, schedule: Q01DX010 (ip), vehicle: saline) 100 % of control; (dose: 100.0 mg/kg/injection, schedule: Q01DX010 (ip), vehicle: saline) 100 % of control; (dose: 200.0 mg/kg/injection, schedule: Q01DX010 (ip), vehicle: saline) 104 % of control.

As for `COC(=O)CCCC1=NC2=CC=CC3=NC(C)=NC(=N1)N23`, the T/C reads like this: under setting [7], 110 % of control; under setting [1], 99 % of control.

With `CCOC(=O)Nc1cc(NC/C(=N/O)c2ccc(OC)cc2)c([N+](=O)[O-])c(N)n1`, the T/C runs as follows: (dose: 12.5 mg/kg/injection, schedule: Q01DX001 (ip), vehicle: Klucel (hydroxypropylcellulose) (HPC)) 93 % of control; (dose: 25.0 mg/kg/injection, schedule: Q01DX001 (ip), vehicle: Klucel (hydroxypropylcellulose) (HPC)) 93 % of control; (dose: 50.0 mg/kg/injection, schedule: Q01DX001 (ip), vehicle: Klucel (hydroxypropylcellulose) (HPC)) 93 % of control.

Take `CNC(=N)c1ccc(NC(=N)c2ccc(NC(=N)c3ccc(NC(=N)c4ccc(C(=N)NC)cc4)cc3)cc2)cc1`: the T/C is, setting by setting: (dose: 6.0 mg/kg/injection, schedule: Q01DX009 (ip), vehicle: saline with Tween-80) 120 % of control; (dose: 13.0 mg/kg/injection, schedule: Q01DX009 (ip), vehicle: saline with Tween-80) 166 % of control and 175 % of control; (dose: 18.0 mg/kg/injection, schedule: Q04DX003 (ip), vehicle: saline with Tween-80) 100 % of control; (dose: 20.0 mg/kg/injection, schedule: Q01DX009 (ip), vehicle: saline with Tween-80) 157 % of control and 165 % of control; (dose: 20.0 mg/kg/injection, schedule: Q04DX003 (ip), vehicle: saline with Tween-80) 109 % of control; (dose: 26.0 mg/kg/injection, schedule: Q04DX003 (ip), vehicle: saline with Tween-80) 116 % of control. Further, the T/C was 214 % of control (dose: 30.0 mg/kg/injection, schedule: Q01DX009 (ip), vehicle: saline with Tween-80); 154 % of control (dose: 40.0 mg/kg/injection, schedule: Q04DX003 (ip), vehicle: saline with Tween-80); 90 % of control (dose: 80.0 mg/kg/injection, schedule: Q04DX003 (ip), vehicle: saline with Tween-80).

For `Cn1c(/N=C(/N)N=C(N)N)cc(=O)n(C)c1=O`, the T/C is, setting by setting: under setting [8], 104 % of control; under setting [9], 100 % of control; under setting [10], 95 % of control.

With `O=C(O)COCc1ccccc1`, the T/C is 100 % of control (dose: 100.0 mg/kg/injection, schedule: Q01DX001 (ip), vehicle: saline sonified); 104 % of control (dose: 200.0 mg/kg/injection, schedule: Q01DX001 (ip), vehicle: saline sonified); 117 % of control (dose: 400.0 mg/kg/injection, schedule: Q01DX001 (ip), vehicle: saline sonified).

Turning to `O=C(/C=C/c1ccncc1)c1ccccc1`, the T/C reads like this: (dose: 100.0 mg/kg/injection, schedule: Q01DX001 (ip), vehicle: saline with Tween-80) 122 % of control; (dose: 200.0 mg/kg/injection, schedule: Q01DX001 (ip), vehicle: saline with Tween-80) 113 % of control.

`COc1ccc(C=C2C(=O)N(C)C(=O)N(C)C2=O)cc1`: the T/C (dose: 50.0 mg/kg/injection, schedule: Q01DX009 (ip), vehicle: other) is 119 % of control.

Take `NC(=O)n1nccc1N`: the T/C was 100 % of control under setting [11]; 105 % of control under setting [9]; 100 % of control under setting [12]; 115 % of control under setting [10]; 90 % of control (dose: 400.0 mg/kg/injection, schedule: Q01DX009 (ip), vehicle: saline); 110 % of control (dose: 400.0 mg/kg/injection, schedule: Q04DX003 (ip), vehicle: saline).

In the case of `COc1cc([C@@H]2Oc3cc([C@@H]4Oc5cc(O)cc(O)c5C(=O)[C@H]4O)ccc3O[C@H]2CO)ccc1O`, the T/C is, setting by setting: under setting [2], 107 % of control; under setting [3], 93 % of control; under setting [4], 97 % of control.

Take `CC(=O)Oc1ccc(OC(C)=O)c2c1C(=O)C=CC2=O`: the T/C is, setting by setting: (dose: 0.09 mg/kg/injection, schedule: Q01DX009 (ip), vehicle: Klucel (hydroxypropylcellulose) (HPC)) 97 % of control; (dose: 0.18 mg/kg/injection, schedule: Q01DX009 (ip), vehicle: Klucel (hydroxypropylcellulose) (HPC)) 97 % of control; (dose: 0.37 mg/kg/injection, schedule: Q01DX009 (ip), vehicle: Klucel (hydroxypropylcellulose) (HPC)) 112 % of control; (dose: 0.75 mg/kg/injection, schedule: Q01DX009 (ip), vehicle: Klucel (hydroxypropylcellulose) (HPC)) 118 % of control; (dose: 1.5 mg/kg/injection, schedule: Q01DX009 (ip), vehicle: Klucel (hydroxypropylcellulose) (HPC)) 93 % of control and 98 % of control; (dose: 3.0 mg/kg/injection, schedule: Q01DX009 (ip), vehicle: Klucel (hydroxypropylcellulose) (HPC)) 95 % of control. Moreover, the T/C (dose: 6.25 mg/kg/injection, schedule: Q01DX009 (ip), vehicle: Klucel (hydroxypropylcellulose) (HPC)) was 91 % of control.

In the case of `O=C(N=Nc1c(O)[nH]c2c(Cl)cc(Cl)cc12)c1ccccc1O`, the T/C runs as follows: under setting [5], 90 % of control; under setting [1], 87 % of control; under setting [6], 96 % of control.

`CC(=O)Nc1c([N+](=O)[O-])ccc(Cl)c1Cl`: the T/C runs as follows: (dose: 25.0 mg/kg/injection, schedule: Q01DX009 (ip), vehicle: Klucel (hydroxypropylcellulose) (HPC)) 104 % of control; (dose: 50.0 mg/kg/injection, schedule: Q01DX009 (ip), vehicle: Klucel (hydroxypropylcellulose) (HPC)) 87 % of control; (dose: 100.0 mg/kg/injection, schedule: Q01DX009 (ip), vehicle: Klucel (hydroxypropylcellulose) (HPC)) 100 % of control; under setting [13], 100 % of control.

For the molecule `O=[N+]([O-])/C=C/c1ccc(O)cc1`, the T/C was 100 % of control (dose: 6.25 mg/kg/injection, schedule: Q01DX009 (ip), vehicle: saline with Tween-80); 102 % of control (dose: 12.5 mg/kg/injection, schedule: Q01DX009 (ip), vehicle: saline with Tween-80); 110 % of control under setting [7]; 107 % of control under setting [5].

With `Cc1ccc(Sc2ccccc2C(C)(C)O)cc1`, the T/C under setting [5] is 101 % of control, the T/C under setting [1] is 101 % of control and the T/C under setting [6] is 95 % of control.

On to `C=CCCCCCCCCC(=O)NC[n+]1cccc(O)c1`, for which the T/C was 110 % of control under setting [7], 100 % of control under setting [5] and 100 % of control under setting [1].

In the case of `C/C(=C\Br)CO`, the T/C was 90 % of control under setting [8]; 105 % of control under setting [11]; 105 % of control under setting [9]; 95 % of control under setting [12]; 90 % of control under setting [10].

For the molecule `COc1ccc(NCNc2ccc(OC)cc2)cc1`, the T/C runs as follows: (dose: 25.0 mg/kg/injection, schedule: Q04DX003 (ip), vehicle: Klucel (hydroxypropylcellulose) (HPC)) 110 % of control; (dose: 50.0 mg/kg/injection, schedule: Q04DX003 (ip), vehicle: Klucel (hydroxypropylcellulose) (HPC)) 105 % of control; under setting [13], 110 % of control.
